The record followed here is patent EP2338485A1, “Substituted 1,3-dioxoisoindolines as medicine” (Grünenthal GmbH, priority 2009, dated 2011).

Like-named read-outs stand apart in the source and are kept apart here.

The experiment relates to vGLUT1- bzw. vGLUT2-Transporter. In words: Glutamate uptake into rat crude synaptic vesicles ([3H]-glutamate uptake). As to conditions: for VGLUT (Ratte), Hemmung [%]: test concentration not given. Format: biochemical, Ratte. The source says: I. Funktionelle Untersuchung an den vGLUT1- bzw. vGLUT2-Transportern
Die agonistische bzw. antagonistische Wirkung der zu untersuchenden Verbindungen am vGLUT1- bzw. vGLUT2-Transporter der Spezies Ratte kann mit folgendem Assay bestimmt werden.
Glutamat-Uptake in Rattenvesikel ('rat crude synaptic vesicles')
Die Präparation von Vesikeln wurde aus Rattengehirn-homogenaten (männlichen Ratten, Stamm Wistar SPF, 150-250 g Gewicht) durchgeführt gemäß Roseth et al. (1995) J. Neurochem. 65: 96-103, der sich auf Whittaker et al. (1964) Biochem J. 90, 293-303 und Fykse und Fonnum (1988) J. Neurochem. 50: 1237-1242 bezieht.
Hierzu wurden frisch entnommene Rattengehirne in 0,32 M Saccharose, 10 mM TRIS-maleat, 1 mM EGTA, pH 7,4 (10 ml/g Frischgewicht) mit einem Potter-Homogenisator (Fa. Braun/Melsungen; 5 Kolbenhübe bei 800 Upm) unter Eiskühlung homogenisiert und anschließend für 10 Minuten bei 3.000 g und 4°C zentrifugiert. Der resultierende Überstand wurde bei 20.000 g für 30 Minuten bei 4°C zentrifugiert. Das entstandene Pellet wurde dann im Verhältnis 1:3 mit 10 mM TRIS-maleate, 0,1 mM EGTA, pH 7,4 osmotisch geschockt und die Suspension bei 17000g für 30 min (4°C) zentrifugiert. Die im Überstand verbliebenen Vesikel wurden nun auf einen Dichtegradienten aus 0,6 M Saccharose in 10 mM TRIS-maleat, 1 mM EGTA, pH 7.4 und 0.4 M Saccharose in 10 mM TRIS-maleat, 1 mM EGTA, pH 7.4 geschichtet. Eine Ultrazentrifugation der Gradienten im Ausschwingrotor bei 65000g für 2h (4°C) schloss sich an. Die Vesikel-Fraktion wurde von der 0.4 M Saccharose-Bande isoliert und im Uptake-Versuch eingesetzt.
Die Substratlösung für den Uptake von [^3H]-Glutamat bestand aus ATP (neutralisiert mit Trisma base; 2 mM im Endansatz), Glutamat (0.5 mM im Endansatz) und ^3H-Glutamat (0.5 µCi im Endansatz). In 14 ml-Reagiergefäßen (Sarstedt, Artikel-Nr.: 798438) wurden jeweils 0,3 ml Gesamtvolumina (n=2/Probe) pipettiert in der folgenden Reihenfolge: 1.) 165 µl Inkubationspuffer (110 mM Kaliumtartrat, 10 mM TRIS-maleat, pH 7,4, 4 mM MgCl2), 2.) 10 µl Testsubstanz oder Vehikelkontrolle oder blank, 3.) 100 µl synaptische Vesikel. Es schloss sich eine Vorinkubation von 15 min bei 30°C an (nur blank-Ansätze befanden sich hierbei auf Eis). Danach wurde der Uptake durch Zugabe von 25 µl der oben beschriebenen Substratlösung gestartet. Die Reaktion wurde nach 5 min durch Zugabe von 7,0 ml eiskalter 150 mM KCI gestoppt. Anschließend wurden die Proben mit Hilfe des Brandel Cell Harvesters Typ M-24R über einen Membranfilter der Porengröße 0,8 µm abgesaugt und zweimal mit eiskalter 150 mM KCI nachgewaschen. Die Messung erfolgte am beta-Counter nach 15 h in 10 ml Szintillatorflüssigkeit (Filter Count).
Die Affinität der Verbindungen der allgemeinen Formel (I) für den vGLUT1- bzw. vGLUT2-Transporter wurde wie vorstehend beschrieben bestimmt (Pharmakologische Methoden)

The mark [1] stands for this setting: compound freshly dissolved from the solid substance, read-out: VGLUT (Ratte), ICso-Fest.

Turning to `O=C(O)c1ccccc1N1C(=O)c2ccc(Oc3ccc(Oc4ccc5c(c4)C(=O)N(c4ccccc4C(=O)O)C5=O)cc3)cc2C1=O` [Beispiel 1, 2,2'-(5,5'-(1,4-Phenylenbis(oxy))bis(1,3-dioxoisoindolin-5,2-diyl))dibenzoesäure], the “VGLUT (Ratte), Hemmung [%]” value came to 74%. Also, the IC50 (read-out: VGLUT (Ratte), IC50) stood at 3810 nM.

As to `O=C(Nc1ccc(O)cc1C(=O)O)c1ccc(N2C(=O)c3ccc(C(=O)Nc4ccc(O)cc4C(=O)O)cc3C2=O)cc1` [Beispiel 2, 2-(4-(5-(2-Carboxy-4-hydroxyphenylcarbamoyl)-1,3-dioxoisoindolin-2-yl)benzamido)-5-hydroxybenzoesäure], the “VGLUT (Ratte), Hemmung [%]” value came out at 98%. In addition, the IC50 under setting [1] is 32 nM. Besides, the IC50 (read-out: VGLUT (Ratte), IC50) was 94.6 nM.

For `O=C(Nc1ccccc1C(=O)O)c1cccc(N2C(=O)c3ccc(C(=O)Nc4ccccc4C(=O)O)cc3C2=O)c1` [Beispiel 3, 2-(3-(5-(2-Carboxyphenylcarbamoyl)-1,3-dioxoisoindolin-2-yl)benzamido)-benzoesäure], the “VGLUT (Ratte), Hemmung [%]” value was 97%. Further, under “read-out: VGLUT (Ratte), IC50”, the IC50 was 560 nM.

In the case of `O=C(Nc1ccc(O)cc1C(=O)O)c1ccc(N2C(=O)c3ccc(C(=O)Nc4ccc(O)cc4C(=O)O)cc3C2=O)cc1` [Beispiel 4, 2-(4-(5-(2-Carboxylato-4-hydroxyphenylcarbamoyl)-1,3-dioxoisoindolin-2-yl)-benzamido)-5-hydroxybenzoesäure, Natriumsalz], under setting [1], the IC50 came to 154 nM.
